Test results as given in PMC9290002, “Development of Urea-Bond-Containing Michael Acceptors as Antitrypanosomal Agents Targeting Rhodesain” (ACS Medicinal Chemistry Letters, 2022).
Where two headings read alike, the source gives them in different places.

Legend:
rhodesain [1] = target: T1, rhodesain (Trypanosoma brucei rhodesiense, UniProt Q95PM0); settings: cited from earlier work; for RD, k2nd: Figure 1
BSF of T.b. = test system: BSF of T.b.; design: method as in PMID 19620707; settings: bloodstream form; Figure 1; cited from earlier work
T. b. brucei [2] = test system: T. b. brucei; design: method as in PMID 31714776, PMID 28763614; settings: Figure 1; cited from earlier work
rhodesain [3] = target: T1, rhodesain; assay: Rhodesain fluorogenic enzyme assay (Cbz-Phe-Arg-AMC); type: biochemical; settings: for Ki: dissociation constant of noncovalent E·I complex, corrected to zero substrate concentration; for Rhodesain k2nd: k2nd = kinact/Ki
T. b. brucei [4] = assay: Antitrypanosomal activity against cultured T. b. brucei (ATPlite assay); type: cell-based; settings: Trypanosoma brucei, 24 h
Experimental: All the urea derivatives were tested against cultured T. b. brucei, which expresses rhodesain similarly to T. b. rhodesiense. […] The difference in terms of rhodesain inhibition and antitrypanosomal activity observed for 1 could be due to its poor cell membrane permeability. In fact, we assume that the presence of substituents on the phenyl ring at the P3 position, as well as the extension of the aromatic region, could influence the crossing of cell membranes.
EC50 values for the antitrypanosomal activity were determined using the ATPlite assay as previously

[5] = target: human cathepsin L (hCatL) (Homo sapiens, UniProt P07711); assay: Enzyme assay towards hCatL; type: biochemical
Sequence of human cathepsin L (hCatL) (P07711 114-333): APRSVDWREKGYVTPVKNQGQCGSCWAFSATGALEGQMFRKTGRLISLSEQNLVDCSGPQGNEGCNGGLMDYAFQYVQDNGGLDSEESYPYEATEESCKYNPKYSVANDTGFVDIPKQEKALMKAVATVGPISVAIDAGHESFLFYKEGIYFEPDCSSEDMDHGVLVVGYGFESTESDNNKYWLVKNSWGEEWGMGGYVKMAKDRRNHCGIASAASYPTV

[6] = target: T2, main protease (Mpro) of SARS-CoV-2 (Severe acute respiratory syndrome coronavirus 2, UniProt P0DTD1); assay: Enzyme assay towards SARS-CoV-2 Mpro, preliminary screening; type: biochemical; settings: preliminary screening at 100 μM; read-out: SARS-CoV-2 Mpro percentage of inhibition
T2 construct: the main protease (M^pro) of SARS-CoV-2
Experimental: In light of this, dilution assays characterizing the mode of inhibition were not performed. Since poor inhibition was shown by the Phe-containing analogues, the Leu derivatives 25 and 26 were not tested against SARS-CoV-2 M^pro.
In all the manipulations regarding the biological evaluation, no unexpected or unusually high safety hazards […]
Enzyme assays towards rhodesain.
The biological activity against rhodesain was evaluated by fluorescence-based assays and all tested compounds were diluted in DMSO. Rhodesain was recombinantly expressed as previously reported2,3 and Cbz-Phe-Arg-AMC (10 µM) was used as the fluorogenic substrate. In the preliminary screening at 0.1 µM, the substrate hydrolysis was determined over a period of 10 min at rt and fluorescence intensity was measured every 30 seconds, whereas the kinetic parameters after the dilutions were determined over a period of 30 min. The assay buffer (pH 5.5) contains 50 mM of sodium acetate, 5 mM of EDTA, 200 mM of NaCl, and 0.005% of Brij 35. Enzyme buffer (pH 5.5) contains 5 mM of DTT and the same chemicals used for assay buffer, with exception of Brij 35. Each independent assay was carried-out twice in duplicate using 96-well-plates in a final volume of 200 µL. Infinity 200 PRO microplate (Tecan, Männedorf, Switzerland) was employed as the fluorescence reader, and a 380 nm excitation filter and a 460 nm emission filter were used.
The first-order inactivation rate costants (k obs) were determined analyzing the progress curves by nonlinear regression analysis using the equation 1 shown in the Chart S1. 4 The obtained k obs values were fitted against the inhibito concentrations to the hyperbolic equation 2, providing the k inact and K iapp values. The latter were corrected to zero substrate concentration by the term (1+[S]/K m) in equation 3. The K m value used to correct K iapp values was determined to 0.9 μM. 5 K i and k inac values were calculated by nonlinear regression analyses using GraFit.6 The second-order rate constants k 2nd = k inact/K i were easily determined from the […]
Chart S1. Equations 1, 2, and 3.
Enzyme assays towards hCatL.
The biological evaluation towards hCatL was performed following the procedure reported in the literature.7 Enzyme assays towards SARS-CoV-2 Mpro.
The biological activity of novel Michael acceptors 1-9 against SARS-CoV-2 M pro was carried-out following the previously described protocol.8
Antitrypanosomal activity.
(1 picture or pasted object on this page, not shown here)

T1 sequence (Q95PM0 entry or part of it): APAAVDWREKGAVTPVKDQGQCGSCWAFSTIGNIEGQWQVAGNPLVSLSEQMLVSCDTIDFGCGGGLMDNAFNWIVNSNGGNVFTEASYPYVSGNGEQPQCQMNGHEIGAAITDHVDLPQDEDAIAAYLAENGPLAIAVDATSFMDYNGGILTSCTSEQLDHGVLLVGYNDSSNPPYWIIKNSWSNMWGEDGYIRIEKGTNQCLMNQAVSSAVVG

SMILES	Ki (rhodesain [1]) [nM]	Rhodesain k2nd (rhodesain [1])	Rhodesain kinact (rhodesain [1]) [min^–1]	RD, k2nd (rhodesain [1]) [M⁻¹ min⁻¹]	BSF of T.b., ED50 (BSF of T.b.) [µM]	EC50 (T. b. brucei [2]) [µM]	Ki (rhodesain [3]) [nM]	EC50 (T. b. brucei [4]) [nM]	Ki [5] [nM]	hCatL k2nd [5]	kinact [5] [s⁻¹]	inhibition at 100 µM [6] [%]	Rhodesain k2nd (rhodesain [3])
CC(C)C[C@H](NC(=O)[C@H]1O[C@@H]1C(=O)O)C(=O)NCCCCN=C(N)N [E64]	35 ± 5	261 ± 27 ×10^3 M^–1 min^–1	0.0090 ± 0.0004	–	–	–	–	–	–	–	–	–	–
CN1CCN(C(=O)N[C@@H](Cc2ccccc2)C(=O)N[C@H](/C=C/S(=O)(=O)c2ccccc2)CCc2ccccc2)CC1 [K11777]	–	9000 ×10^3 M^–1 min^–1	–	9e+06	0.9	–	–	–	–	–	–	–	–
CC(=O)/C=C/[C@H](CCc1ccccc1)NC(=O)[C@H](Cc1ccccc1)NC(=O)c1ccc(F)cc1 [PS-1]	–	–	–	8.81e+08	–	3.6	–	–	–	–	–	–	–
CC(=O)/C=C/[C@H](CCc1ccccc1)NC(=O)[C@H](Cc1ccccc1)NC(=O)OCc1ccccc1 [RK-52]	–	–	–	6.7e+07	–	2.97	–	–	–	–	–	–	–
CC(=O)/C=C/[C@H](CCc1ccccc1)NC(=O)[C@H](Cc1ccccc1)NC(=O)Nc1ccccc1 [compound 1, (S)-N-((S,E)-6-Oxo-1-phenylhept-4-en-3-yl)-3-phenyl-2-(3-phenylureido)propenamide]	–	–	–	–	–	–	0.15 ± 0.06	19800 ± 2670	0.11 ± 0.01	5920 ± 150 x 103M-1 min-1	1e-05	33 to 66	–
COc1ccc(NC(=O)N[C@@H](Cc2ccccc2)C(=O)N[C@H](/C=C/C(C)=O)CCc2ccccc2)cc1 [compound 2, (S)-2-(3-(4-Methoxyphenyl)ureido)-N-((S,E)-6-oxo-1-phenylhept-4-en-3-yl)-3-phenylpropanamide]	–	–	–	–	–	–	1.05 ± 0.33	2080 ± 220	81.9 ± 1.06	9 ± 1 x 103M-1 min-1	1.33e-05	33 to 66	5820 ± 490 ×10^3 M^–1 min^–1
CC(=O)/C=C/[C@H](CCc1ccccc1)NC(=O)[C@H](Cc1ccccc1)NC(=O)Nc1ccc(C)cc1 [compound 3, (S)-N-((S,E)-6-Oxo-1-phenylhept-4-en-3-yl)-3-phenyl-2-(3-(p-tolyl)ureido)propanamide]	–	–	–	–	–	–	0.51 ± 0.38	1390 ± 230	1.32 ± 0.25	360 ± 106 x 103M-1 min-1	7.5e-06	33 to 66	–
CC(=O)/C=C/[C@H](CCc1ccccc1)NC(=O)[C@H](Cc1ccccc1)NC(=O)Nc1ccc(F)cc1 [compound 4, (S)-2-(3-(4-Fluorophenyl)ureido)-N-((S,E)-6-oxo-1-phenylhept-4-en-3-yl)-3-phenylpropanamide]	–	–	–	–	–	–	0.85 ± 0.07	1510 ± 80	0.1 ± 0.01	5880 ± 120 x 103M-1 min-1	1e-05	33 to 66	2480 ± 50 ×10^3 M^–1 min^–1
CC(=O)/C=C/[C@H](CCc1ccccc1)NC(=O)[C@H](Cc1ccccc1)NC(=O)Nc1c(F)cccc1F [compound 5, (S)-2-(3-(2,6-Difluorophenyl)ureido)-N-((S,E)-6-oxo-1-phenylhept-4-en-3-yl)-3-phenylpropanamide]	–	–	–	–	–	–	1.13 ± 0.26	3200 ± 280	2.14 ± 0.25	326 ± 8 x 103M-1 min-1	1.17e-05	33 to 66	2030 ± 230 ×10^3 M^–1 min^–1
CC(=O)/C=C/[C@H](CCc1ccccc1)NC(=O)[C@H](Cc1ccccc1)NC(=O)Nc1ccc(Cl)cc1 [compound 6, (S)-2-(3-(4-Chlorophenyl)ureido)-N-((S,E)-6-oxo-1-phenylhept-4-en-3-yl)-3-Phenylpropanamide]	–	–	–	–	–	–	0.78 ± 0.13	1500 ± 240	3.11 ± 1.63	321 ± 152 x 103M-1 min-1	1.25e-05	33 to 66	2990 ± 300 ×10^3 M^–1 min^–1
CC(=O)/C=C/[C@H](CCc1ccccc1)NC(=O)[C@H](Cc1ccccc1)NC(=O)Nc1ccc(Cl)cc1C [compound 7, (S)-2-(3-(4-Chloro-2-methylphenyl)ureido)-N-((S,E)-6-oxo-1-phenylhept-4-en-3-yl)-3-phenylpropanamide]	–	–	–	–	–	–	0.51 ± 0.36	1650 ± 70	0.18 ± 0.03	3110 ± 160 x 103M-1 min-1	9.17e-06	33 to 66	–
CC(=O)/C=C/[C@H](CCc1ccccc1)NC(=O)[C@H](Cc1ccccc1)NC(=O)Nc1ccc(Cl)cc1C(F)(F)F [compound 8, (S)-2-(3-(4-Chloro-2-(trifluoromethyl)phenyl)ureido)-N-((S,E)-6-oxo-1-phenylhept-4-en-3-yl)-3-phenylpropanamide]	–	–	–	–	–	–	1.04 ± 0.31	1280 ± 40	2.27 ± 0.43	256 ± 71 x 103M-1 min-1	9.17e-06	33 to 66	6050 ± 790 ×10^3 M^–1 min^–1
CC(=O)/C=C/[C@H](CCc1ccccc1)NC(=O)[C@H](Cc1ccccc1)NC(=O)Nc1cccc2ccccc12 [compound 9, (S)-2-(3-(Naphthalen-1-yl)ureido)-N-((S,E)-6-oxo-1-phenylhept-4-en-3-yl)-3-phenylpropanamide]	–	–	–	–	–	–	2.51 ± 1.51	2280 ± 270	0.051 ± 0.001	12820 ± 1050 x 103M-1 min-1	1.08e-05	33 to 66	4170 ± 1360 ×10^3 M^–1 min^–1
CC(=O)/C=C/[C@H](CCc1ccccc1)NC(=O)[C@H](CC(C)C)NC(=O)Nc1ccc(C)cc1 [compound 25, (S)-4-Methyl-N-((S,E)-6-oxo-1-phenylhept-4-en-3-yl)-2-(3-(p-tolyl)ureido)pentanamide]	–	–	–	–	–	–	0.42 ± 0.08	1540 ± 90	0.64 ± 0.02	2120 ± 6 x 103M-1 min-1	2.25e-05	–	–
CC(=O)/C=C/[C@H](CCc1ccccc1)NC(=O)[C@H](CC(C)C)NC(=O)Nc1ccc(Cl)cc1C [compound 26, (S)-2-(3-(4-chloro-2-methylphenyl)ureido)-4-methyl-N-((S,E)-6-oxo-1-phenylhept-4-en-3-yl)pentanamide]	–	–	–	–	–	–	0.93 ± 0.52	1120 ± 50	0.07 ± 0.03	14240 ± 5410 x 103M-1 min-1	1.42e-05	–	–
